# Results taken from patent US7288653B2, “Inhibitors of proton-gated cation channels and their use in the treatment of ischaemic disorders” (PainCeptor Pharma Corporation, priority 1999, dated 2007).
# Tested on: proton-gated cation channels in cultured mouse cortical neurons
# Experiment: Whole cell patch clamp of proton-gated currents in cultured mouse cortical neurons
# Type: cell-based
# Procedure: The following experiments were performed in voltage-or current clamp using conventional whole cell patch clamp methods [Hamill O P, Marty A, Neher E, Sakmann B and Sigworth F J: Improved patch-clamp techniques for high-resolution current recording from cells and cell-free membrane patches; Pflügers Arch. 1981 39 85-100]. The following salt solutions were used (where nothing else stated, the chemicals are available from Sigma): NaCl (140 mM), KCl (4 mM), CaCl2 (2 mM), MgCl2 (1 mM), Sucrose (30 mM; Available from Fluka Chemie, Buchs, Switzerland), HEPES (10 mM, pH 6-7.4). Solutions with pH<6 were buffered with MES (10 mM) in stead of HEPES. Solutions with no added Ca^2+ contained 3 mM MgCl2. Solutions with no added Na^+ contained 140 mM N-methyl-D-glucamine. For voltage clamp experiments, the extracellular solutions were added Tetrodotoxin (0.0003 mM; Available from Alomone Labs, Jerusalem, Israel) and Bicuculline Methiodide (0.005 mM; Available from RBI, MA, USA).
# Intracellular solution for voltage clamp experiments: CsCl (120 mM), CsF (20 mM), MgCl2 (2 mM), EGTA (10 mM), HEPES (10 mM; pH=7.2). […]
# For voltage clamp experiments, the cells were held at a holding voltage of −60 mV and at the start of each experiment the current was continuously measured for at least 30 sec. to ensure a stable leak current. […]
structure (smiles),measurement,setting,value
"N=C(N)NC(=O)c1nc(Cl)c(N)nc1N [Amiloride, N-amidino-3,5-diamino-6-chloropyrazine-2-carboxamide]",Effect on proton-gated currents,"100 μM Amiloride, saline at pH 6, voltage clamp −60 mV",inhibited
same,IC50,"cultured mouse cortical neuron, voltage clamp −60 mV, saline at pH 6, Hill equation fit, read-out: IC50, inhibition of proton-gated currents",6.2 µM
